In general, IC50 refers to the midpoint of a concentration-inhibition curve. Low values mean inhibition by little substance, high ones a need for much substance.

The target of the test is JAK1 (Homo sapiens (Human), UniProt P23458). Briefly: Analysis of JAK1 activity inhibitory capacity (ADP-Glo Kinase assay). The format is biochemical. As to conditions: JAK1 enzyme, ATP 250 uM, IRS-1tide substrate, 30° C. 40 minutes, luminescence. As to the method: Experimental Example 1: Analysis of JAK1 activity inhibitory capacity (ADP-Glo™ Kinase assay)
Chain of JAK1 (P23458 whole entry): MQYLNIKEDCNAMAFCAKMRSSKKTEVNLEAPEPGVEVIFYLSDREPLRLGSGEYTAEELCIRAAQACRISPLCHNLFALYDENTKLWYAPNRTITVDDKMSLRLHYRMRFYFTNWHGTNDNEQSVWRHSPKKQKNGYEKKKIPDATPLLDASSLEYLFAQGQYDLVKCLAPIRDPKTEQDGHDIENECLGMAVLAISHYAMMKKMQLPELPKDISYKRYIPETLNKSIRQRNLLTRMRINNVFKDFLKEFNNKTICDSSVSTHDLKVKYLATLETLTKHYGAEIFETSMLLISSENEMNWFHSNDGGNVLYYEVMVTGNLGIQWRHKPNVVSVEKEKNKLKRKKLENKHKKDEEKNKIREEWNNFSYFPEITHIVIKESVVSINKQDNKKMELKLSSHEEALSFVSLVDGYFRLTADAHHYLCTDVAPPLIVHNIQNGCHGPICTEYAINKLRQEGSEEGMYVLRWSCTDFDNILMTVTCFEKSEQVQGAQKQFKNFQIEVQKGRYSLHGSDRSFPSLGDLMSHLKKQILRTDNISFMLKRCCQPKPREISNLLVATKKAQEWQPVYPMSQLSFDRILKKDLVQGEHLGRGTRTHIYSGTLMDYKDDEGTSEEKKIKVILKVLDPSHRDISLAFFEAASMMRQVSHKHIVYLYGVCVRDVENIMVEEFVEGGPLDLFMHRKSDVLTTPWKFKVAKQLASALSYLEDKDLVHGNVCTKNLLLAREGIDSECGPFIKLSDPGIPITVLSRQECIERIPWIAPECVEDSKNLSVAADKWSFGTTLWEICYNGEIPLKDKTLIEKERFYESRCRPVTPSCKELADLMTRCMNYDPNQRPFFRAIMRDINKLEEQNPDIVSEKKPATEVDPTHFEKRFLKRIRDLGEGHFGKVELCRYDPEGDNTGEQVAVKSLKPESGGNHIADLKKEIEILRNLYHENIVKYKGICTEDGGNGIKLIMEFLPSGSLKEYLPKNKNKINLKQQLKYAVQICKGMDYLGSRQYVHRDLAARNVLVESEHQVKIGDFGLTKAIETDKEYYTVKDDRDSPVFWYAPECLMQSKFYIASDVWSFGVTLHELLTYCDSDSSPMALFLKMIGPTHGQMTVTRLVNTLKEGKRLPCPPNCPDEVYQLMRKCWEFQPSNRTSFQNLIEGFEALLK
An inhibitory effect of the inventive compound on JAK was identified as follows.
A control material and a test material were prepared through dilution at each concentration by using DMSO. At the same time, ATP (250 uM) and JAK's substrate (JAK1, IRS-1tide 40 ng/mL) were prepared through dilution in kinase buffer (40 mM Tris-HCl pH 7.5, 20 mM MgCl2, 0.5 mg/mL BSA, 50 uM DTT).
A test drug for each concentration, the substrate, the ATP and JAK enzymes were mixed in an eppendorf tube, and then subjected to reaction in an incubator at 30° C. for 40 minutes.
ADP-Glo ? reagent included in ADP-Glo™ Kinase Enzyme System (Promega, USA, V9571) was added to each eppendorf tube, and then subjected to reaction in the incubator at 30° C. for 40 minutes.
A kinase detection reagent included in the ADP-Glo™ Kinase Enzyme System was inserted into the eppendorf tube, after which luminescence was measured by using Wallac Victor 2TM with an integration time set to 1 second, such that an inhibitory capacity of the test material on JAKs phosphorylation was analyzed. A concentration of the compound, at which JAK enzyme activity inhibition occurs 50% compared to the control group, was determined as IC50 (nM) of an inhibitor.
A general note: ADP-Glo turns the ADP formed in a reaction into a luminescent signal.
`N#CC1(CC(=O)Nc2cccc3c2ccn3-c2ccnc(NC(=O)C3CC3)c2)CC1` [Example 58, N-(4-(4-(2-(1-cyanocyclopropyl)acetamido)-1H-indol-1-yl)pyridin-2-yl)cyclopropane carboxamide] came in with an IC50 of 100 to 1000 nM.

Regarding `O=C(Nc1cccc2c(-c3ccnc(NC(=O)C4CC4)c3)c[nH]c12)c1cncs1` [Example 6, N-(3-(2-(cyclopropanecarboxamido)pyridin-4-yl)-1H-indol-7-yl)thiazole-5-carboxamide], the IC50 was < 100 nM.

Molecule `Cc1cnc(NC(=O)C2CC2)cc1-c1c[nH]c2c(NC(=O)CC#N)cccc12` [Example 8, N-(4-(7-(2-cyanoacetamido)-1H-indol-3-yl)-5-methylpyridin-2-yl)cyclopropanecarboxamide] showed an IC50 of 100 to 1000 nM.

For `CCc1c[nH]c(C(=O)Nc2cccc3c(-c4ccnc(NC(=O)C5CC5)c4)c[nH]c23)c1` [Example 36, N-(3-(2-(cyclopropanecarboxamido)pyridin-4-yl)-1H-indol-7-yl)-4-ethyl-1H-pyrrole-2-carboxamide], the IC50 is 100 to 1000 nM.

As for `N#Cc1cc(C(=O)Nc2cccc3c2ccn3-c2ccnc(NC(=O)C3CC3)c2)ccn1` [Example 51, 2-cyano-N-(1-(2-(cyclopropanecarboxamido)pyridin-4-yl)-1H-indol-4-yl)isonicotinamide], the 50% inhibitory concentration (IC50) was > 1000 nM.

As to `N#Cc1ccc(C(=O)Nc2cccc3c2ccn3-c2ccnc(NC(=O)C3CC3)c2)cc1` [Example 47, 4-cyano-N-(1-(2-(cyclopropanecarboxamido)pyridin-4-yl)-1H-indol-4-yl)benzamide], the IC50 was > 1000 nM.

For the molecule `O=C(Nc1cccc2c(-c3ccnc(NC(=O)C4CC4)c3)c[nH]c12)c1cc(F)cc(F)c1` [Example 2, N-(3-(2-(cyclopropanecarboxamido)pyridin-4-yl)-1H-indol-7-yl)-3,5-difluorobenzamide], the IC50 is < 100 nM.

`O=C(Nc1cccc2c1ccn2-c1ccnc(NC(=O)C2CC2)c1)c1ccnc(F)c1F` [Example 53, N-(1-(2-(cyclopropanecarboxamido)pyridin-4-yl)-1H-indol-4-yl)-2,3-difluoroisonicotinamide] yielded an IC50 of 100 to 1000 nM.

In turn, `O=C(Nc1cccc2c(-c3ccnc(NC(=O)C4CC4)c3)c[nH]c12)c1nc(C(F)(F)F)cs1` [Example 21, N-(3-(2-(cyclopropanecarboxamido)pyridin-4-yl)-1H-indol-7-yl)-4-(trifluoromethyl)thiazole-2-carboxamide] registered a concentration for half-maximal inhibition (IC50) of 100 to 1000 nM.

As for `O=C(Nc1cccc2c(-c3ccnc(NC(=O)C4CC4)c3)c[nH]c12)c1cncc(F)c1` [Example 31, N-(3-(2-(cyclopropanecarboxamido)pyridin-4-yl)-1H-indol-7-yl)-5-fluoronicotinamide], the IC50 was < 100 nM.

`N#Cc1ccc(C(=O)Nc2cccc3c(-c4ccnc(NC(=O)C5CC5)c4)c[nH]c23)cc1` [Example 27, 4-cyano-N-(3-(2-(cyclopropanecarboxamido)pyridin-4-yl)-1H-indol-7-yl)benzamide] showed an IC50 of 100 to 1000 nM.

Turning to `O=C(NCC(F)(F)F)Nc1cccc2c(-c3ccnc(NC(=O)C4CC4)c3)c[nH]c12` [Example 39, N-(4-(7-(3-(2,2,2-trifluoroethyl)ureido)-1H-indol-3-yl)pyridin-2-yl)cyclopropanecarboxamide], the half-maximal inhibitory concentration (IC50) was < 100 nM.

For `N#CCC(=O)Nc1cccc2c(-c3ccnc(NC(=O)C4CC4)c3)c[nH]c12` [Example 10, N-(4-(7-(2-cyanoacetamido)-1H-indol-3-yl)pyridin-2-yl)cyclopropanecarboxamide], the IC50 is < 100 nM.

On to `O=C(Nc1cccc2c(-c3ccnc(NC(=O)C4CC4)c3)c[nH]c12)c1cccc(F)c1` [Example 38, N-(3-(2-(cyclopropanecarboxamido)pyridin-4-yl)-1H-indol-7-yl)-3-fluorobenzamide], for which the IC50 lay in the range of 100 to 1000 nM.

In the case of `N#C[C@H]1C[C@H]1C(=O)Nc1cccc2c1ccn2-c1ccnc(NC(=O)C2CC2)c1` [Example 57, (1R,2S)-2-cyano-N-(1-(2-(cyclopropanecarboxamido)pyridin-4-yl)-1H-indol-4-yl) cyclopropane-1-carboxamide], the IC50 is < 100 nM.

For `Cc1ccc(C(=O)Nc2cccc3c2ccn3-c2ccnc(NC(=O)C3CC3)c2)cn1` [Example 59, N-(1-(2-(cyclopropanecarboxamido)pyridin-4-yl)-1H-indol-4-yl)-6-methylnicotinamide], the IC50 is > 1000 nM.

Turning to `O=C(Nc1cccc2c(-c3ccnc(NC(=O)C4CC4)c3)c[nH]c12)c1cc[nH]n1` [Example 33, N-(3-(2-(cyclopropanecarboxamido)pyridin-4-yl)-1H-indol-7-yl)-1H-pyrazole-3-carboxamide], the IC50 lay in the range of 100 to 1000 nM.

Consider `O=C(Nc1cc(-c2c[nH]c3c(NC(=O)C4CCCCC4)cccc23)ccn1)C1CC1` [Example 3, N-(3-(2-(cyclopropanecarboxamido)pyridin-4-yl)-1H-indol-7-yl)cyclohexanecarboxamide], for which the half-inhibitory concentration (IC50) was in the range of 100 to 1000 nM.

With `Cc1cc(C)cc(C(=O)Nc2cccc3c(-c4ccnc(NC(=O)C5CC5)c4)c[nH]c23)c1` [Example 5, N-(3-(2-(cyclopropanecarboxamido)pyridin-4-yl)-1H-indol-7-yl)-3,5-dimethylbenzamid], the IC50 is < 100 nM.

Regarding `Cc1cc(NC(=O)c2cnc(C)cn2)c2[nH]cc(-c3ccnc(NC(=O)C4CC4)c3)c2c1` [Example 16, N-(3-(2-(cyclopropanecarboxamido)pyridin-4-yl)-5-methyl-1H-indol-7-yl)-5-methylpyrazine-2-carboxamide], the IC50 was in the range of 100 to 1000 nM.

`Cn1cccc(C(=O)Nc2cccc3c2ccn3-c2ccnc(NC(=O)C3CC3)c2)c1=O` [Example 45, N-(1-(2-(cyclopropanecarboxamido)pyridin-4-yl)-1H-indol-4-yl)-1-methyl-2-oxo-1,2-dihydropyridine-3-carboxamide]: the half-inhibitory concentration (IC50) is > 1000 nM.

Molecule `COc1ccc(C(=O)Nc2cccc3c2ccn3-c2ccnc(NC(=O)C3CC3)c2)cc1F` [Example 56, N-(1-(2-(cyclopropanecarboxamido)pyridin-4-yl)-1H-indol-4-yl)-3-fluoro-4-methoxybenzamide] gave an IC50 of 100 to 1000 nM.

For the molecule `O=C(Nc1ccc(F)cc1F)Nc1cccc2c1ccn2-c1ccnc(NC(=O)C2CC2)c1` [Example 61, N-(4-(4-(3-(2,4-difluorophenyl)ureido)-1H-indol-1-yl)pyridin-2-yl)cyclopropanecarboxamide], the IC50 is > 1000 nM.

`N#CC1(C(=O)Nc2cccc3c(-c4ccnc(NC(=O)C5CC5)c4)c[nH]c23)CCOCC1` [Example 11, 4-cyano-N-(3-(2-(cyclopropanecarboxamido)pyridin-4-yl)-1H-indol-7-yl)tetrahydro-2H-pyran-4-carboxamide]: the IC50 was 100 to 1000 nM.

`O=C(Nc1cccc2c(-c3ccnc(NC(=O)C4CC4)c3)c[nH]c12)c1ccc[nH]1` [Example 23, N-(3-(2-(cyclopropanecarboxamido)pyridin-4-yl)-1H-indol-7-yl)-1H-pyrrole-2-carboxamide] yielded an IC50 of 100 to 1000 nM.

For the molecule `N#Cc1cc(C(=O)Nc2cccc3c(-c4ccnc(NC(=O)C5CC5)c4)c[nH]c23)ccn1` [Example 35, 2-cyano-N-(3-(2-(cyclopropanecarboxamido)pyridin-4-yl)-1H-indol-7-yl)isonicotin amide], the IC50 lay in the range of 100 to 1000 nM.

With `O=C(Nc1cccc2c1ccn2-c1ccnc(NC(=O)C2CC2)c1)c1ccnc(F)c1` [Example 52, N-(1-(2-(cyclopropanecarboxamido)pyridin-4-yl)-1H-indol-4-yl)-2-fluoroisonicotinamide], the IC50 was > 1000 nM.

On to `O=C(Nc1cccc2c(-c3ccnc(NC(=O)C4CC4)c3)c[nH]c12)c1cnc(F)c(F)c1` [Example 30, N-(3-(2-(cyclopropanecarboxamido)pyridin-4-yl)-1H-indol-7-yl)-5,6-difluoronicotinamide], for which the IC50 was < 100 nM.

Take `CC(C#N)C(=O)Nc1cccc2c(-c3ccnc(NC(=O)C4CC4)c3)c[nH]c12` (centres unmarked) [Example 14, N-(4-(7-(2-cyanopropanamido)-1H-indol-3-yl)pyridin-2-yl)cyclopropanecarboxamide]: the IC50 is < 100 nM.

The values are drawn from patent US12180185B2, “Compound as protein kinase inhibitor, and pharmaceutical composition comprising thereof” (HK INNO.N Corporation, priority 2018, dated 2024).
